Results on nine compounds are retold here after patent publication US20030114445A1, “N3-substituted 6-anilinopyrimidines and methods to treat-Gram-positive bacterial and mycoplasmal infections” (priority 2001, published 2003).

For data set [1], the system named is S. aureus (Smith strain). Kind of data set: Efficacy, ip dosing of mice infected with S. aureus. The format is in vivo. As to conditions: suspensions in saline, 5 animals, FIG. 2. The text has this:
Compounds 12, 19, 26, and 29 were given by the intraperitoneal (ip) route as suspensions in saline to mice previously infected with S. aureus (Smith strain). Vancomycin was used as a positive drug control and saline was used as a negative vehicle control.

The target of the next data set is B.subtilis pol IIIC (Bacillus subtilis, UniProt P13267). The data set can be described thus: biochemical. Summed up:
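Purified pol IIIC incorporating [3H]-dTMP into nicked calf-thymus DNA with Mg2+, DTT and glycerol, 10 min at 30 °C; acid-insoluble radioactivity counted, in triplicate.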

Another data set deals with E. fecium. Kind of data set: Inhibition of bacterial growth on agar plates (MIC). Format: cell-based. Conditions: 37° C., 24 hours. The procedure, abridged:
(§1)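 Agar dilution: compounds from DMSO or water stocks mixed into medium with 1.3% agar at 60° C; 500-1000 CFU plated, incubated 37° C for 24 hours. MIC is the lowest concentration with no colony formation.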

The subject of a further data set is S.aureus (Smith). The data set is described as above. Format: cell-based. As to conditions: Staphylococcus aureus, 37° C., 24 hours. The procedure, abridged: as §1
The test system of the next data set is B. subtilis. The data set is described as above. As to conditions: Bacillus subtilis, 37° C., 24 hours. Format: cell-based. The procedure, abridged:
as §1

The next data set relates to E. fecalis. The description is as above. Conditions: 37° C., 24 hours. Format: cell-based. The procedure, abridged: as §1
The next data set is described as follows: Water solubility. Format: physicochemical. Conditions: 25° C. stated for Compound 35. The text has this: The compounds described herein have increased water solubility; some of the compounds can form salts, such as with inorganic or organic acids or with alkali metal bases, thus greatly increasing their solubilities. […] The improved water solubilities are a distinct advantage in formulation and in dosing of animals for testing, and for ultimate therapeutic use in humans.

Data set [2] in a line: Pharmacokinetics in mice (plasma concentration by HPLC). Format: in vivo. Conditions: saline solution. The text has this:
Compound 59 was given to mice in simple saline solutions by various routes—subcutaneous (sc), intravenous (iv), and orally (po). High performance liquid chromatography (HPLC) on a reverse phase C 18 column was used to monitor the concentration of the compound in animal plasma, and the results were plotted as a function of time, as shown in FIG. 1.
Tmax, time to peak concentration; Cmax, peak concentration; T½, half-life; AUC(0-t), area under the curve, from 0 to time t; AUC(0-60), area under the curve, from 0 to 60 minutes; Vd, volume of distribution; Cl, clearance.

Data set [3] has as its system S. aureus (Smith strain). The data set can be described thus: Efficacy, sc dosing of mice infected ip with S. aureus. Format: in vivo. Conditions: Compound 59 given sc, relative to vehicle control, FIG. 3. The text has this: Compound 59 was give by the sc route to mice infected by the ip route with S. aureus (Smith strain).

In brackets after ≈: the same amount, converted by molar mass. Read-outs that look alike come from different tables or passages of the source. Bounds are passed on as bounds.

B.subtilis pol IIIC, sequence (P13267 whole entry): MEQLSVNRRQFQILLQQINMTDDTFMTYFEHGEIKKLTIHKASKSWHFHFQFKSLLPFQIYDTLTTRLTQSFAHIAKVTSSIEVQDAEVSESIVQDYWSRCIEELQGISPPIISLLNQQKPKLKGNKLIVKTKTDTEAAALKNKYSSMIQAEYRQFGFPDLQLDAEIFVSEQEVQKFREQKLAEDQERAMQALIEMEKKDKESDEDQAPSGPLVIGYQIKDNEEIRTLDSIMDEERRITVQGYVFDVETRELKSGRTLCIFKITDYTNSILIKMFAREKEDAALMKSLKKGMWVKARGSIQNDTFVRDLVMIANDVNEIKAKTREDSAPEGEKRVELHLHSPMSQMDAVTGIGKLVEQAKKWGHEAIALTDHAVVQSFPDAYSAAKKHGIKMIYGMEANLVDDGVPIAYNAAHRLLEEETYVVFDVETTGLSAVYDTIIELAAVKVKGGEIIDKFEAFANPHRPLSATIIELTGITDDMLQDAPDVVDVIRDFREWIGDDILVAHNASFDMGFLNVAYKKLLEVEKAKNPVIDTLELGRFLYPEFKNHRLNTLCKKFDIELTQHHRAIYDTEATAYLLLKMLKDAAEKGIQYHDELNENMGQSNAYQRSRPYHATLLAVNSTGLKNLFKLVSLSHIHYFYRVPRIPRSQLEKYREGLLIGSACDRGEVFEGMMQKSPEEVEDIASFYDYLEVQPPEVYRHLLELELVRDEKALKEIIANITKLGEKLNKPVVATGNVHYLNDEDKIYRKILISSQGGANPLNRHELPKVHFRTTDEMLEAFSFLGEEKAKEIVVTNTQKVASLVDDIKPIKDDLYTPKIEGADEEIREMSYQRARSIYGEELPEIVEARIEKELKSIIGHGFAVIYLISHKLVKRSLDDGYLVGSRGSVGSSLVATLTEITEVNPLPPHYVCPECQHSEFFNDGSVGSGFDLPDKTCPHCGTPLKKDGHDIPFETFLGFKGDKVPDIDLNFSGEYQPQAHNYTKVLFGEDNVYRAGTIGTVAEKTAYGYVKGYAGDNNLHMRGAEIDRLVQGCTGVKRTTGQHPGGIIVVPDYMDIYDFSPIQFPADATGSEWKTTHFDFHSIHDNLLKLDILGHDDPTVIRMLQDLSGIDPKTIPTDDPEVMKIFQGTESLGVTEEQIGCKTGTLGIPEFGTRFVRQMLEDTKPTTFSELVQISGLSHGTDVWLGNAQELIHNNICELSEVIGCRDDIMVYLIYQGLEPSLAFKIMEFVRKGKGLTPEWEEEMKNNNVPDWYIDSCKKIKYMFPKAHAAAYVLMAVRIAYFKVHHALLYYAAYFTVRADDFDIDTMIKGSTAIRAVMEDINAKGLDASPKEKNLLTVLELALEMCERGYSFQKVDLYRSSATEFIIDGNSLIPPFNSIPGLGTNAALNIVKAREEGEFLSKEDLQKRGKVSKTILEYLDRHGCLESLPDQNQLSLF

`CCc1cc(Nc2cc(=O)n(CCCCCO)c(=O)[nH]2)ccc1C` [Compound 26, 3-(5-Hydroxypentyl)-6-(3-ethyl-4-methylanilino)uracil]: in the data set on S. aureus (Smith strain) [1], the animals protected is 1 of the 5.
One may read the MIC as the least concentration at which growth counts as inhibited. A higher MIC goes with a need for much substance. `CCc1cc(Nc2cc(=O)n(CCOCCO)c(=O)[nH]2)ccc1C` [Compound 29, 3-[2-(2-Hydroxyethoxy)ethyl]-6-(3-ethyl-4-methylanilino)uracil] showed a Ki on B.subtilis pol IIIC of 125 nM. Also, the MIC against E. fecium is 5 µg/mL (≈ 15 µM); in the data set on S.aureus (Smith), 5 µg/mL (≈ 15 µM); in the data set on B. subtilis it was less than 1.25 µg/mL; with E. fecalis, 5 µg/mL (≈ 15 µM). The animals protected in the data set on S. aureus (Smith strain) [1] is listed as 4 of the 5.
The solubility is how much of the substance goes into solution per volume. Consider `CCc1cc(Nc2cc(=O)n(CCCCN3CCOCC3)c(=O)[nH]2)ccc1C` [Compound 35, 3-[4-(N-morpholino)butyl]-6-(3-ethyl-4-methylanilino)uracil], for which the Ki at B.subtilis pol IIIC (truncated assay, apparent inhibitor constant, read-out: K1 B.subtilis pol IIIC) turned out to be 48 nM. For the same compound, the solubility in “Water solubility” is less than 1 mg/mL. In addition, the MIC against E. fecium is 2.5 µg/mL (≈ 6.47 µM); with S.aureus (Smith) it was 5 µg/mL (≈ 12.9 µM); against B. subtilis it was 2.5 µg/mL (≈ 6.47 µM); with E. fecalis it was 5 µg/mL (≈ 12.9 µM).
One may read the Cmax as the highest concentration seen after dosing. The clearance is the rate of elimination divided by the concentration. A low value points to a low capacity for elimination. The term half-life denotes how long it takes for the measured level to halve. High values mean slow loss, low ones fast loss. As usually defined, the Tmax is the time from dosing to the highest level. In general, bioavailability refers to dose-corrected exposure relative to a reference, in per cent. Turning to `CCc1cc(Nc2cc(=O)n(CCCCN3CCOCC3)c(=O)[nH]2)ccc1C.Cl` [Compound 59, 3-[4-(N-morpholino)butyl]-6-(3-ethyl-4-methylanilino)uracil hydrochloride], the AUC(0-t) is 3900 ng·h/mL in [2] (mouse, plasma, iv, 20 mg/kg, iv, 20 mg/kg, 0-120, read-out: AUC(0-t) (converted)); 3400 ng·h/mL in [2] (mouse, plasma, iv, 20 mg/kg, iv, 20 mg/kg, read-out: AUC(0-60) (converted)); 6770 ng·h/mL in data set [2] (mouse, plasma, sc, 20 mg/kg, sc, 20 mg/kg, (0-180), read-out: AUC(0-t) (converted)); 3330 ng·h/mL in data set [2] (mouse, plasma, sc, 20 mg/kg, sc, 20 mg/kg, read-out: AUC(0-60) (converted)); 26900 ng·h/mL in data set [2] (mouse, plasma, sc, 200 mg/kg, sc, 200 mg/kg, (0-180), read-out: AUC(0-t) (converted)); 10600 ng·h/mL in data set [2] (mouse, plasma, sc, 200 mg/kg, sc, 200 mg/kg, read-out: AUC(0-60) (converted)). Further, the AUC(0-t) in data set [2] (mouse, plasma, sc, 400 mg/kg, sc, 400 mg/kg, (0-360), read-out: AUC(0-t) (converted)) is 75000 ng·h/mL; in data set [2] (mouse, plasma, sc, 400 mg/kg, sc, 400 mg/kg, read-out: AUC(0-60) (converted)) it was 19800 ng·h/mL. In addition, the Cmax in data set [2] (mouse, plasma, iv, 20 mg/kg) is 27400 ng/mL; in [2] (mouse, plasma, sc, 20 mg/kg), 4600 ng/mL; in [2] (mouse, plasma, sc, 200 mg/kg), 15000 ng/mL; in data set [2] (mouse, plasma, sc, 400 mg/kg), 24100 ng/mL. In data set [2] (mouse, plasma, iv, 20 mg/kg), the clearance is 77 mL/min/kg. Moreover, the half-life was 39 min in data set [2] (mouse, plasma, iv, 20 mg/kg); 149 min in data set [2] (mouse, plasma, sc, 20 mg/kg); 132 min in data set [2] (mouse, plasma, sc, 200 mg/kg); 373 min in data set [2] (mouse, plasma, sc, 400 mg/kg). For the same compound, the Tmax in [2] (mouse, plasma, iv, 20 mg/kg, ncm fit) was 0 min; in data set [2] (mouse, plasma, sc, 20 mg/kg), 5 min; in [2] (mouse, plasma, sc, 200 mg/kg) it was 30 min; in data set [2] (mouse, plasma, sc, 400 mg/kg), 30 min. The Vd was 4.3 L/kg in [2] (mouse, plasma, iv, 20 mg/kg, read-out: Vd) and 6.5 L/kg in data set [2] (sc, 20 mg/kg). Further, the bioavailability in data set [2] (mouse, plasma, po, read-out: oral bioavailability (absorbed from the po route)) is roughly 50%. This compound also yielded a Cl in [2] (sc, 20 mg/kg) of 30.2 mL/min/kg. Further, the “absorption by the sc route” value in data set [2] (sc) was “completely absorbed”. Further, in the data set with S. aureus (Smith strain) [3], the “survival of infected mice” value is on record as “prolonged the survival time of mice relative to vehicle control”. The solubility in the data set “Water solubility” is greater than 60 mg/mL.
Compound `CCc1cc(Nc2cc(=O)n(CCCCN3CC=C(c4ccc5c(c4)OCO5)CC3)c(=O)[nH]2)ccc1C` [Compound 80, 3-{4-[4-(3,4-dioxomethylenephenyl-1,2,3,6-tetrahydropyridinyl)]butyl}-6-(3-ethyl-4-methylanilino)uracil] registered a Ki on B.subtilis pol IIIC of 24 nM. The MIC with E. fecium was found to be 5 µg/mL (≈ 9.95 µM); against S.aureus (Smith), 10 µg/mL (≈ 19.9 µM); against B. subtilis it was 2.5 µg/mL (≈ 4.97 µM); against E. fecalis it was 5 µg/mL (≈ 9.95 µM).
`CCc1cc(Nc2cc(=O)n(CCCCN3CC=C(c4ccc(C)c(C)c4)CC3)c(=O)[nH]2)ccc1C` [Compound 81] showed a Ki on B.subtilis pol IIIC of 34 nM. The MIC in the data set on E. fecium came out at 10 µg/mL (≈ 20.5 µM); in the data set with S.aureus (Smith), 20 µg/mL (≈ 41.1 µM); against B. subtilis, 1.25 µg/mL (≈ 2.57 µM); in the data set with E. fecalis, 10 µg/mL (≈ 20.5 µM).
Turning to `CCc1cc(Nc2cc(=O)n(CCCCN3CC=C(c4ccc(F)c(C)c4)CC3)c(=O)[nH]2)ccc1C` [Compound 82], the Ki at B.subtilis pol IIIC was determined as 29 nM. Besides, the MIC against E. fecium was 20 µg/mL (≈ 40.8 µM); in the data set with S.aureus (Smith), 20 µg/mL (≈ 40.8 µM); against B. subtilis, 10 µg/mL (≈ 20.4 µM); with E. fecalis it was 20 µg/mL (≈ 40.8 µM).
`CCc1cc(Nc2cc(=O)n(CCCCO)c(=O)[nH]2)ccc1C` [HB-EMAU, 3-(4-hydroxybutyl)-6-(3-ethyl-4-methylanilino)uracil, reference compound] displayed a Ki at B.subtilis pol IIIC of 70 nM. In addition, the MIC is 5 µg/mL (≈ 15.8 µM) against E. fecium, 5 µg/mL (≈ 15.8 µM) against S.aureus (Smith), less than 1.25 µg/mL in the data set on B. subtilis and 5 µg/mL (≈ 15.8 µM) against E. fecalis.
With `CN[C@H](CC(C)C)C(=O)N[C@H]1C(=O)N[C@@H](CC(N)=O)C(=O)N[C@H]2C(=O)N[C@H]3C(=O)N[C@H](C(=O)N[C@H](C(=O)O)c4cc(O)cc(O)c4-c4cc3ccc4O)[C@H](O)c3ccc(c(Cl)c3)Oc3cc2cc(c3O[C@@H]2O[C@H](CO)[C@@H](O)[C@H](O)[C@H]2O[C@H]2C[C@](C)(N)[C@H](O)[C@H](C)O2)Oc2ccc(cc2Cl)[C@H]1O` [Vancomycin, reference compound], the “survival of infected mice” value in the data set with S. aureus (Smith strain) [3] is recorded as “protected the animals from this infection”. For the same compound, the animals protected result with S. aureus (Smith strain) [1] was “protected all animals”.
